Usually MIC stands for the least concentration at which growth counts as inhibited.

Each structure is given as a SMILES string. Values after ≈ are worked out from the molar mass of the structure shown. Where only a bound is given, the exact number is not on record here.

One experiment deals with Neisseria gonorrhoeae, GC525 (NG-2888). Description: in-vitro antibacterial activity, microbroth dilution MIC susceptibility testing. The settings on record: Neisseria gonorrhoeae, microbroth dilution in gonococcal broth, 20-24 hours at 35 C, lowest concentration preventing visible growth, read-out: MIC. More on the design: unit: ug/mL. Format: cell-based. The essentials:
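Broth microdilution in gonococcal broth, inoculum ~5×10^5 cfu/mL, 20-24 h at 35 C in humidified CO2; compounds from 2 mg/mL DMSO stocks over 64-0.06 and 1-0.001 ug/mL two-fold series. MIC is the lowest concentration preventing visible growth, read visually; duplicates differing one well give the lower value, two wells the middle value.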
(In general: Broth dilution looks for growth in wells or tubes with falling amounts of substance.)
As to `CCNC(=O)Nc1nc2cc(-c3cccnc3)cc(C(=O)NCCN(C)C)n2n1` [Example 105, 2-(3-Ethyl-ureido)-7-pyridin-3-yl-[1,2,4]triazolo[1,5-a]pyridine-5-carboxylic acid (2-dimethylamino-ethyl)-amide], the MIC was 16 µg/mL (≈ 40.4 µM).
`CCNC(=O)Nc1nc2cc(-c3cccnc3)cc(C(=O)NCc3ccc(OC)c(OC)c3)n2n1` [Example 106, 2-(3-Ethyl-ureido)-7-pyridin-3-yl-[1,2,4]triazolo[1,5-a]pyridine-5-carboxylic acid 3,4-dimethoxy-benzylamide]: the MIC is > 64 µg/mL.
The same measure, in the same setting: next, `CCNC(=O)Nc1nc2cc(-c3cccnc3)cc(C(=O)NCCCN)n2n1` [Example 107, 2-(3-Ethyl-ureido)-7-pyridin-3-yl-[1,2,4]triazolo[1,5-a]pyridine-5-carboxylic acid (3-amino-propyl)-amide]: > 64 µg/mL; `CCCC(=O)c1cc(-c2cccnc2)cc2nc(NC(=O)NCC)nn12` [Example 108, 1-(5-Butyryl-7-pyridin-3-yl-[1,2,4]triazolo[1,5-a]pyridine-2-yl)-3-ethyl-urea]: 2 µg/mL (≈ 5.68 µM); `CCNC(=O)Nc1nc2cc(-c3cccnc3)cc(C(=O)C3CC3)n2n1` [Example 109, 1-(5-Cyclopropanecarbonyl-7-pyridin-3-yl-[1,2,4]triazolo[1,5-a]pyridine-2-yl)-3-ethyl-urea]: 2 µg/mL (≈ 5.71 µM).
Take `CCNC(=O)Nc1nc2cc(-c3cccnc3)cc(C(=O)Cc3ccccc3)n2n1` [Example 110, 1-Ethyl-3-(5-phenylacetyl-7-pyridin-3-yl-[1,2,4]triazolo[1,5-a]pyridine-2-yl)-urea]: the MIC is 4 µg/mL (≈ 9.99 µM).
Consider `CCNC(=O)Nc1nc2cc(-c3cccnc3)cc(C(=O)c3ccccc3)n2n1` [Example 111, 1-(5-Benzoyl-7-pyridin-3-yl-[1,2,4]triazolo[1,5-a]pyridine-2-yl)-3-ethyl-urea], for which the MIC came to 8 µg/mL (≈ 20.7 µM).
`CCCC(=NOC)c1cc(-c2cccnc2)cc2nc(NC(=O)NCC)nn12` [Example 112, 1-Ethyl-3-[5-(1-methoxyimino-butyl)-7-pyridin-3-yl-[1,2,4]triazolo[1,5-a]pyridine-2-yl]-urea]: the MIC was determined as 8 µg/mL (≈ 21 µM).
As for `CCNC(=O)Nc1cn2c(CN3CCCC3)cc(-c3cccnc3)cc2n1` [Example 113, 1-Ethyl-3-(7-pyridin-3-yl-5-pyrrolidin-1-ylmethyl-imidazo[1,2-a]pyridin-2-yl)-urea], the minimum inhibitory concentration (MIC) came to 64 µg/mL (≈ 176 µM).
Still for that read-out and setting: to `CCNC(=O)Nc1nc2cc(N3CCCC3)cc(C(=O)N3CCCC3)n2n1` [Example 121, 1-Ethyl-3-[5-(pyrrolidine-1-carbonyl)-7-pyrrolidin-1-yl-[1,2,4]triazolo[1,5-a]pyridin-2-yl]-urea] belongs 64 µg/mL (≈ 172 µM).
Take `CCNC(=O)Nc1nc2cc(-c3cccnc3)cc(-c3nc(CC)cs3)n2n1` [Example 122, 1-Ethyl-3-[5-(4-ethyl-thiazol-2-yl)-7-pyridin-3-yl-[1,2,4]triazolo[1,5-a]pyridin-2-yl]-urea]: the MIC is 0.06 µg/mL (≈ 0.152 µM).
On to `CCNC(=O)Nc1nc2cc(-c3cccnc3)cc(-c3cnc(CC)s3)n2n1` [Example 123, 1-Ethyl-3-[5-(2-ethyl-thiazol-5-yl)-7-pyridin-3-yl-[1,2,4]triazolo[1,5-a]pyridin-2-yl]-urea], for which the MIC was > 64 µg/mL.
Same read-out and setting: next, `CCNC(=O)Nc1nc2cc(-c3cccnc3)cc(-c3cncs3)n2n1` [Example 125, 1-Ethyl-3-[5-(thiazol-5-yl)-7-pyridin-3-yl-[1,2,4]triazolo[1,5-a]pyridin-2-yl]-urea]: 0.06 µg/mL (≈ 0.164 µM); `CCNC(=O)Nc1nc2cc(-c3cccnc3)cc(-c3ccccn3)n2n1` [Example 127, 1-Ethyl-3-(5-pyridin-2-yl-7-pyridin-3-yl-[1,2,4]triazolo[1,5-a]pyridin-2-yl)-urea]: 32 µg/mL (≈ 89 µM); `CCNC(=O)Nc1nc2cc(-c3cccnc3)cc(-c3ncccn3)n2n1` [Example 128, 1-Ethyl-3-(7-pyridin-3-yl-5-pyrimidin-2-yl-[1,2,4]triazolo[1,5-a]pyridin-2-yl)-urea]: > 64 µg/mL.
`CCNC(=O)Nc1nc2cc(-c3cccnc3)cc(-c3cnc(C)o3)n2n1` [Example 129, N-Ethyl-N′-[5-(2-methyl-1,3-oxazol-5-yl)-7-pyridin-3-yl[1,2,4]triazolo[1,5-a]pyridin-2-yl]urea]: the MIC came out at 1 µg/mL (≈ 2.75 µM).
Turning to `CCNC(=O)Nc1nc2cc(-c3cccnc3)cc(N3CCN(C)CC3)n2n1` [Example 131, 1-Ethyl-3-[5-(4-methyl-piperazin-1-yl)-7-pyridin-3-yl-[1,2,4]triazolo[1,5-a]pyridin-2-yl]-urea], the minimum inhibitory concentration (MIC) amounted to 32 µg/mL (≈ 84.1 µM).
As for `CCNC(=O)Nc1nc2cc(-c3cccnc3)cc(-c3cnc(C)s3)n2n1` [Example 132, 1-Ethyl-3-[5-(2-methyl-thiazol-5-yl)-7-pyridin-3-yl-[1,2,4]triazolo[1,5-a]pyridin-2-yl]-urea], the MIC is 2 µg/mL (≈ 5.27 µM).
As for `CCNC(=O)Nc1nc2cc(-c3cccnc3)cc(-c3cnc(C)n3C)n2n1` [Example 135, N-[5-(1,2-Dimethyl-1H-imidazol-5-yl)-7-pyridin-3-yl[1,2,4]triazolo[1,5-a]pyridin-2-yl]-N′-ethylurea], the MIC came to 8 µg/mL (≈ 21.3 µM).
Turning to `CCNC(=O)Nc1nc2cc(-c3cccnc3)cc(-c3cncn3C)n2n1` [Example 136, N-ethyl-N′-[5-(1-methyl-1H-imidazol-5-yl]-7-pyridin-3-yl[1,2,4]triazolo[1,5-a]pyridin-2-yl]urea], the MIC is 4 µg/mL (≈ 11 µM).
For `CCNC(=O)Nc1nc2cc(-c3cccnc3)cc(N(C)C3CCCCC3)n2n1` [Example 137, N-[5-[Cyclohexyl(methyl)amino]-7-pyridin-3-yl[1,2,4]triazolo[1,5-a]pyridin-2-yl]-N′-ethylurea], the MIC stood at 32 µg/mL (≈ 81.3 µM).
On the same count and under the same terms, to `CCNC(=O)Nc1nc2cc(-c3cccnc3)cc(NC3CCCCC3)n2n1` [Example 138, 1-(5-Cyclohexylamino-7-pyridin-3-yl-[1,2,4]triazolo[1,5-a]pyridin-2-yl)-3-ethyl-urea] belongs 0.5 µg/mL (≈ 1.32 µM); to `CCNC(=O)Nc1nc2cc(-c3cccnc3)cc(-c3cnc(CC)o3)n2n1` [Example 139, N-Ethyl-N′-[5-(2-ethyl-1,3-oxazol-5-yl)-7-pyridin-3-yl[1,2,4]triazolo[1,5-a]pyridin-2-yl]urea], 1 µg/mL (≈ 2.65 µM); to `CCNC(=O)Nc1nc2cc(-c3cccnc3)cc(-c3cnc(C(C)C)s3)n2n1` [Example 140, 1-Ethyl-3-[5-(2-i-propyl-thiazol-5-yl)-7-pyridin-3-yl-[1,2,4]triazolo[1,5-a]pyridin-2-yl]-urea], 64 µg/mL (≈ 157 µM).
Take `CCNC(=O)Nc1nc2cc(-c3cccnc3)cc(-c3ccc(OC)nc3)n2n1` [Example 142, N-Ethyl-N′-[5-(6-methoxypyridin-3-yl)-7-pyridin-3-yl[1,2,4]triazolo[1,5-a]pyridin-2-yl]urea]: the MIC worked out at 16 µg/mL (≈ 41.1 µM).
Turning to `CCNC(=O)Nc1nc2cc(-c3cccnc3)cc(OCCN3CCCCC3)n2n1` [Example 144, 1-Ethyl-3-[5-(2-piperidin-1-yl-ethoxy)-7-pyridin-3-yl-[1,2,4]triazolo[1,5-a]pyridin-2-yl]-urea], the MIC was found to be 32 µg/mL (≈ 78.1 µM).
With `CCNC(=O)Nc1nc2cc(-c3cccnc3)cc(N3CCNCC3)n2n1` [Example 146, 1-Ethyl-3-(5-piperazin-1-yl-7-pyridin-3-yl-[1,2,4]triazolo[1,5-a]pyridin-2-yl)-urea], the MIC is 32 µg/mL (≈ 87.3 µM).
For `CCNC(=O)Nc1nc2cc(-c3cccnc3)cc(-c3oc(C)nc3C)n2n1` [Example 148, N-[5-(2,4-Dimethyl-1,3-oxazol-5-yl)-7-pyridin-3-yl[1,2,4]triazolo[1,5-a]pyridin-2-yl]-N′-ethylurea], the MIC turned out to be 4 µg/mL (≈ 10.6 µM).
For the compound `CCNC(=O)Nc1nc2cc(-c3ccc(OC)nc3)cc(-c3cnc(C)o3)n2n1` [Example 149, 1-Ethyl-3-[7-(6-methoxy-pyridin-3-yl)-5-(2-methyl-oxazol-5-yl)-[1,2,4]triazolo[1,5-a]pyridin-2-yl]-urea], the MIC is 16 µg/mL (≈ 40.7 µM).
Take `CCNC(=O)Nc1nc2cc(-c3cccnc3)cc(N(C)C3CCN(C)C3)n2n1` (stereo not drawn) [Example 150, 1-Ethyl-3-(5-[methyl-(1-methyl-pyrrolidin-3-yl)-amino]-7-pyridin-3-yl-[1,2,4]triazolo[1,5-a]pyridin-2-yl)-urea]: the MIC was 32 µg/mL (≈ 81.1 µM).

The experiment is the same for the next values; noted with them: microbroth dilution in gonococcal broth, 20-24 hours at 35 C, lowest concentration preventing visible growth.
`CCNC(=O)Nc1nc2cc(-c3cccnc3)cc(C(=O)N(CC)CC)n2n1` [Example 104, 2-(3-Ethyl-ureido)-7-pyridin-3-yl-[1,2,4]triazolo[1,5-a]pyridine-5-carboxylic acid diethylamide] showed an MIC of 64.0 µg/mL (≈ 168 µM).
`CCOC(=O)c1cc(-c2cnc(N(C)C)nc2)cc2nc(NC(=O)NC(C)C)cn12` [Example 116, 7-(2-Dimethylamino-pyrimidin-5-yl)-2-(3-isopropyl-ureido)-imidazo[1,2-a]pyridine-5-carboxylic acid ethyl ester]: the MIC was >64.0 µg/mL.
For the compound `CCNC(=O)Nc1cn2c(C(=O)OCC)cc(-c3ccc(OC)cc3)cc2n1` [Example 118, 2-(3-Ethyl-ureido)-7-(4-methoxy-phenyl)-imidazo[1,2-a]pyridine-5-carboxylic acid ethyl ester], the MIC was >64.0 µg/mL.
The compound `CCNC(=O)Nc1nc2cc(-c3cccnc3)cc(-c3cnc(CC)s3)n2n1` [Example 124, 1-ethyl-3-[5-(2-ethyl-thiazol-5-yl)-7-pyridin-3-yl-[1,2,4]triazolo[1,5-a]pyridin-2-yl]-urea] registered an MIC of 64.0 µg/mL (≈ 163 µM).
As for `CCNC(=O)Nc1nc2cc(-c3cccnc3)cc(-c3cccnc3)n2n1` [Example 126, 1-(5,7-Di-pyridin-3-yl-[2,4]triazolo[1,5-a]pyridin-2-yl)-3-ethyl-urea], the MIC was 16.0 µg/mL (≈ 44.5 µM).
In turn, `CCNC(=O)c1cc(-c2cccnc2)cc2nc(NS(C)(=O)=O)nn12` [Example 147, 2-N-Methylsulfonylamino-7-pyridin-3-yl-[1,2,4]triazolo[1,5-a]pyridin-5-carboxylic acid ethyl amide] displayed an MIC of 4.00 µg/mL (≈ 11.1 µM).

Values taken from patent US7524860B2, “Antibacterial agents” (Pfizer Inc., priority 2004, dated 2009).
